In patent US9115145B2, “Tocotrienol derivatives and associated methods” (FIRST TECH INTERNATIONAL LIMITED, priority 2011, dated 2015):
Like-named read-outs stand apart in the source and are kept apart here.

Experiments:
[1] = tested on: 60 human tumor cell lines; test: NCI in vitro screening against 60 human cell lines, single concentration; format: cell-based; conditions: 10 μM dose; negative values indicate cytotoxicity
Method: Compounds selected from Compounds 3-44 were provided to the National Cancer Institute for in vitro screening against 60-human cell lines for their ability to inhibit the growth of tumor cells in a full panel representing nine different organs (blood, lung, colon, CNS, skin, ovary, kidney, prostate, and breast). The compounds were tested at a single concentration of 10 μM, and the percentages of growth inhibitions over the sixty tested cell lines were determined. Compounds showing the highest activity were chosen for secondary assays using five different compound concentrations.
The human tumor cell lines of the cancer screening panel were grown in RPMI 1640 medium containing 5% fetal bovine serum and 2 mM L-glutamine. For a typical screening experiment, cells are inoculated into 96 well microtiter plates in 100 μL at plating densities ranging from 5000 to 40,000 cells/well depending on the doubling time of individual cell lines. After cell inoculation, the microtiter plates are incubated at 37° C., 5% CO2, 95% air and 100% relative humidity for 24 hours prior to addition of experimental drugs. After 24 hours, two plates of each cell line are fixed in situ with Trichloroacetic acid (“TCA”), to represent a measurement of the cell population for each cell line at the time of drug addition. Experimental drugs are solubilized in dimethyl sulfoxide at 400-fold the desired final maximum test concentration and stored frozen prior to use. At the time of drug addition, an aliquot of frozen concentrate is thawed and diluted to twice the desired final maximum test concentration with complete medium containing 50 ng/mL gentamicin. An aliquot of 100 μL of this drug dilution is added to the appropriate microtiter wells already containing 100 μL of medium, resulting in the required final drug concentrations. Following drug addition, the plates are incubated for an additional 48 h at 37° C., 5% CO2, 95% air, and 100% relative humidity. For adherent cells, the assay is terminated by the addition of cold TCA. Cells are fixed in situ by the gentle addition of 50 μL of cold 50% (w/v) TCA (final concentration, 10% TCA) and incubated for 60 min at 4° C. The supernatant is discarded, and the plates are washed five times with tap water and air dried. Sulforhodamine B (SRB) solution (100 μL) at 0.4% (w/v) in 1% acetic acid is added to each well, and plates are incubated for 10 min at room temperature. After staining, unbound dye is removed by washing five times with 1% acetic acid and the plates are air dried. Bound stain is subsequently solubilized with 10 mM trizma base, and the absorbance is read on an automated plate reader at a wavelength of 515 nm. For suspension cells, the methodology is the same except that the assay is terminated by fixing settled cells at the bottom of the wells by gently adding 50 μL of 80% TCA (final concentration, 16% TCA). FIGS. 37-74 indicate the growth inhibition effects of selected Compounds against a variety of cell lines based on the above described testing configuration. FIGS. 37-74 present the Growth percent for a given compound against the cell lines and both values and a bar chart of the difference between the mean growth percent and the growth percent which is an indication of the selectivity of the compound for that particular cell line.

[2] = tested on: +SA mammary epithelial cells; test: MTT assay of +SA cells (antiproliferative activity); format: cell-based, mouse; conditions: 24 hours treatment, read-out: IC50 antiproliferative activity against +SA mammary epithelial cells
Procedure, shortened: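 Mouse +SA mammary adenocarcinoma cells in serum-free DMEM/F12 were grown 3 days, then treated 24 h with BSA-conjugated compounds (0–40 μM; DMSO <0.1%). Viable cell number came from MTT (570 nm) against a cell standard curve. IC50 was derived by linear regression.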

Row | Compound | mean percent growth across all 60 cell lines (mean 60) [1] | IC50 [2] [µM] | IC50 ([2]; Mus musculus, +SA cell) [µM]
1 | CC(C)=CCC/C(C)=C/CC/C(C)=C/CC[C@]1(C)CCc2cc(O)c(C)c(C)c2O1 [Compound 1, γ-tocotrienol, reference compound] | inactive | 4 | 
2 | COc1ccc(CCNCc2c(O)c(C)c(C)c3c2CC[C@@](C)(CC/C=C(\C)CC/C=C(\C)CCC=C(C)C)O3)cc1OC [Compound 30, (R)-5-((3,4-dimethoxyphenethylamino)methyl)-2,7,8-trimethyl-2-((3E,7E)-4,8,12-trimethyltrideca-3,7,11-trienyl)chroman-6-ol] | comparable to the activity of Compound 1 |  | 3.19
